Source: ChEMBL document CHEMBL1201862, “PubChem BioAssay data set” (2004)
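Briefly, cells in 96-well plates were exposed to five compound concentrations for 48 h, and endpoints were estimated by linear interpolation. GI50: concentration for 50% inhibition of growth.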 Activity calls are given as the source filed them. No stated cut-off is given here; in the data, active = GI50 up to about 1.1 µM and inactive = higher.

How the values were obtained:
Assay in all cases: NCI-60 cell line screen, 48 h
HT-29 = test system: HT-29
RPMI-8226 = test system: RPMI-8226
NCI-H522 = test system: NCI-H522
OVCAR-4 = test system: OVCAR-4
XF498 = test system: XF498
SK-MEL-28 = test system: SK-MEL-28
U-251 = test system: U-251
OVCAR-5 = test system: OVCAR-5
RXF 393 = test system: RXF 393
HCC 2998 = test system: HCC 2998
NCI-H460 = test system: NCI-H460
SK-MEL-5 = test system: SK-MEL-5
HL-60 = test system: HL-60
UACC-62 = test system: UACC-62
SNB-19 = test system: SNB-19
Hs-578T = test system: Hs-578T
BT-549 = test system: BT-549
NCI/ADR-RES = test system: NCI/ADR-RES
T47D = test system: T47D
SR = test system: SR

| Compound | GI50 (HT-29) | GI50 (RPMI-8226) | GI50 (NCI-H522) | GI50 (OVCAR-4) | GI50 (XF498) | GI50 (SK-MEL-28) | GI50 (U-251) | GI50 (OVCAR-5) | GI50 (RXF 393) | GI50 (HCC 2998) | GI50 (NCI-H460) | GI50 (SK-MEL-5) | GI50 (HL-60) | GI50 (UACC-62) | GI50 (SNB-19) | GI50 (Hs-578T) | GI50 (BT-549) | GI50 (NCI/ADR-RES) | GI50 (T47D) | GI50 (SR) |
| --- | --- | --- | --- | --- | --- | --- | --- | --- | --- | --- | --- | --- | --- | --- | --- | --- | --- | --- | --- | --- |
| O=C(OCc1nc2ccc(Br)cc2c(=O)n1-c1ccccc1)c1ccccc1O | 84.9 µM (inactive) | 29.4 µM (inactive) | 38.1 µM (inactive) | 34.1 µM (inactive) | 51.4 µM (inactive) | > 100 µM (inactive) | > 100 µM (inactive) | > 100 µM (inactive) | > 100 µM (inactive) | > 100 µM (inactive) | > 100 µM (inactive) | 18.1 µM (inactive) | 36.7 µM (inactive) | > 100 µM (inactive) | – | – | – | – | – | – |
| Cc1cc(NCC2CC/C(=C\C=C\c3ccccc3)C2=O)no1 (stereo not given) | > 100 µM (inactive) | 19.5 µM (inactive) | > 100 µM (inactive) | > 100 µM (inactive) | – | > 100 µM (inactive) | 40.2 µM (inactive) | > 100 µM (inactive) | > 100 µM (inactive) | > 100 µM (inactive) | > 100 µM (inactive) | 94.4 µM (inactive) | 42.7 µM (inactive) | 32.1 µM (inactive) | > 100 µM (inactive) | 85.1 µM (inactive) | > 100 µM (inactive) | 40.5 µM (inactive) | > 100 µM (inactive) | 36.9 µM (inactive) |
| [Se]=P(c1ccccc1)(c1ccccc1)c1ccc(C(c2ccccc2)=P(c2ccccc2)(c2ccccc2)c2ccccc2)cc1 | 0.406 µM (active) | 0.313 µM (active) | 0.33 µM (active) | 0.443 µM (active) | – | 2.28 µM (inactive) | 0.385 µM (active) | 3.05 µM (inactive) | 1.57 µM (inactive) | 0.979 µM (active) | 1.28 µM (inactive) | 0.505 µM (active) | 0.0881 µM (active) | 1.02 µM (active) | 1.01 µM (active) | 0.435 µM (active) | 0.929 µM (active) | 7.67 µM (inactive) | 0.537 µM (active) | 0.415 µM (active) |
| O=C(NN1C(=O)C(Cl)C1c1ccc(O)cc1)c1ccccc1O (stereo not given) | 18.4 µM (inactive) | – | 18.1 µM (inactive) | 23.7 µM (inactive) | 11.1 µM (inactive) | 19.4 µM (inactive) | 14.3 µM (inactive) | – | 13.1 µM (inactive) | – | 17.5 µM (inactive) | 14.6 µM (inactive) | 25.2 µM (inactive) | 17.2 µM (inactive) | 23 µM (inactive) | – | – | – | – | – |
| Cn1c(=O)n(CC(Br)CBr)c(=O)n(CC(Br)CBr)c1=O (stereo not given) | 21.7 µM (inactive) | 25.1 µM (inactive) | 28 µM (inactive) | 66.2 µM (inactive) | – | 39.7 µM (inactive) | 43.3 µM (inactive) | 43.9 µM (inactive) | 32.8 µM (inactive) | 28.4 µM (inactive) | 33.4 µM (inactive) | 16.5 µM (inactive) | 20.4 µM (inactive) | 23.3 µM (inactive) | 75.7 µM (inactive) | > 100 µM (inactive) | 67.9 µM (inactive) | 40.5 µM (inactive) | 38.7 µM (inactive) | 18.4 µM (inactive) |
| CCC(N)(C(=O)O)C(C)C (stereo not given) | > 100 µM (inactive) | > 100 µM (inactive) | > 100 µM (inactive) | > 100 µM (inactive) | – | > 100 µM (inactive) | > 100 µM (inactive) | > 100 µM (inactive) | > 100 µM (inactive) | > 100 µM (inactive) | > 100 µM (inactive) | > 100 µM (inactive) | > 100 µM (inactive) | > 100 µM (inactive) | > 100 µM (inactive) | > 100 µM (inactive) | > 100 µM (inactive) | > 100 µM (inactive) | > 100 µM (inactive) | > 100 µM (inactive) |
| COC(=O)C1C(O)C(C)C(O)C(C)C=C(C)C2=C3C(=C(C)C(=O)c4c(O)c(c(C)c(OC(C)=O)c43)NC(=O)C(C)=C/C=C\C(C)C(O)C(C)C1O)OCO2 (stereo not given) | 27.7 µM (inactive) | 18.4 µM (inactive) | 16 µM (inactive) | 25.3 µM (inactive) | – | 22.3 µM (inactive) | 45.4 µM (inactive) | > 100 µM (inactive) | 24.9 µM (inactive) | 34.3 µM (inactive) | 67.5 µM (inactive) | 19.9 µM (inactive) | 17.8 µM (inactive) | 28 µM (inactive) | > 100 µM (inactive) | 61.2 µM (inactive) | 19.6 µM (inactive) | 40.5 µM (inactive) | 31 µM (inactive) | 19.7 µM (inactive) |
| COC(=O)CCC(=O)NC1=C(Nc2ccccc2)C(=O)c2ccccc2C1=O | 16.9 µM (inactive) | 13.2 µM (inactive) | 14.8 µM (inactive) | 10.5 µM (inactive) | – | 8.51 µM (inactive) | 11.7 µM (inactive) | 9.27 µM (inactive) | 8.81 µM (inactive) | 22.9 µM (inactive) | 15.3 µM (inactive) | 1.83 µM (inactive) | 3.36 µM (inactive) | 3.67 µM (inactive) | 17.2 µM (inactive) | 7.18 µM (inactive) | 10.6 µM (inactive) | 14.8 µM (inactive) | 13.3 µM (inactive) | 11.4 µM (inactive) |
| N#C[BH2-][n+]1cn(C2CC(OP(=O)(O)OCC3OC(n4cnc5c(N)ncnc54)CC3O)C(CO)O2)c2nc(N)[nH]c(=O)c21 (stereo not given) | > 100 µM (inactive) | > 100 µM (inactive) | > 100 µM (inactive) | > 100 µM (inactive) | – | > 100 µM (inactive) | > 100 µM (inactive) | > 100 µM (inactive) | > 100 µM (inactive) | > 100 µM (inactive) | > 100 µM (inactive) | > 100 µM (inactive) | > 100 µM (inactive) | > 100 µM (inactive) | > 100 µM (inactive) | > 100 µM (inactive) | > 100 µM (inactive) | > 100 µM (inactive) | > 100 µM (inactive) | > 100 µM (inactive) |
| COc1ccc(C(=O)c2sc(Nc3ccc(Cl)cc3)nc2N)cc1 | 4.43 µM (inactive) | 4.16 µM (inactive) | 3.89 µM (inactive) | 12.6 µM (inactive) | – | 29.4 µM (inactive) | 10.7 µM (inactive) | > 49.9 µM (inactive) | 14.1 µM (inactive) | 4.91 µM (inactive) | 4.31 µM (inactive) | 18.3 µM (inactive) | 0.473 µM (active) | 19.3 µM (inactive) | 17.2 µM (inactive) | 11.2 µM (inactive) | > 38.5 µM (inactive) | 5.37 µM (inactive) | 37.6 µM (inactive) | 1.93 µM (inactive) |
| CC(=O)NCc1c(C(N)=O)ncn1Cc1ccccc1 | > 100 µM (inactive) | > 100 µM (inactive) | – | > 100 µM (inactive) | > 100 µM (inactive) | > 100 µM (inactive) | > 100 µM (inactive) | – | > 100 µM (inactive) | > 100 µM (inactive) | > 100 µM (inactive) | > 100 µM (inactive) | > 100 µM (inactive) | > 100 µM (inactive) | > 100 µM (inactive) | – | – | – | – | – |
| N=c1oc2ccccc2cc1C(=O)NC12CC3CC(CC(C3)C1)C2 | 6.11 µM (inactive) | 5.71 µM (inactive) | 3.55 µM (inactive) | 19.9 µM (inactive) | – | 40.4 µM (inactive) | 17.1 µM (inactive) | 37.5 µM (inactive) | 6.52 µM (inactive) | 14.5 µM (inactive) | 14.4 µM (inactive) | 21.2 µM (inactive) | 9.16 µM (inactive) | 15.8 µM (inactive) | 24.4 µM (inactive) | 32.4 µM (inactive) | 18.2 µM (inactive) | 24.2 µM (inactive) | 4.52 µM (inactive) | 2.9 µM (inactive) |
| CN(C)CCCC12CCCCC1=Nc1ccccc12 (stereo not given) | > 100 µM (inactive) | 65.5 µM (inactive) | 97.7 µM (inactive) | > 100 µM (inactive) | – | > 100 µM (inactive) | > 100 µM (inactive) | > 100 µM (inactive) | > 100 µM (inactive) | > 100 µM (inactive) | > 100 µM (inactive) | > 100 µM (inactive) | 26.1 µM (inactive) | > 100 µM (inactive) | > 100 µM (inactive) | > 100 µM (inactive) | > 100 µM (inactive) | > 100 µM (inactive) | > 100 µM (inactive) | 22.5 µM (inactive) |
| O=c1c2ccccc2oc2nccnc12 | > 100 µM (inactive) | > 100 µM (inactive) | – | > 100 µM (inactive) | > 100 µM (inactive) | > 100 µM (inactive) | > 100 µM (inactive) | > 100 µM (inactive) | > 100 µM (inactive) | > 100 µM (inactive) | > 100 µM (inactive) | > 100 µM (inactive) | – | > 100 µM (inactive) | > 100 µM (inactive) | – | – | – | – | – |
| N#Cc1c(Cl)cc(C#N)n2c1nc1ccccc12 | 6.87 µM (inactive) | 4.14 µM (inactive) | 2.42 µM (inactive) | 13.8 µM (inactive) | – | 13.3 µM (inactive) | 20.8 µM (inactive) | 16.4 µM (inactive) | 14.2 µM (inactive) | 21.2 µM (inactive) | 14.9 µM (inactive) | 15.5 µM (inactive) | 1.18 µM (inactive) | 18.3 µM (inactive) | > 53.1 µM (inactive) | 25.8 µM (inactive) | 6.12 µM (inactive) | 15.1 µM (inactive) | 3.12 µM (inactive) | 0.532 µM (active) |
| SC1=Nc2ccccc2-c2nc(-c3cccc(Cl)c3)cc(-c3ccccc3)c2C1 | 2.38 µM (inactive) | 3.2 µM (inactive) | 2.06 µM (inactive) | 0.347 µM (active) | – | 9.12 µM (inactive) | 1.19 µM (inactive) | 5.77 µM (inactive) | 2.81 µM (inactive) | 3.24 µM (inactive) | 1.3 µM (inactive) | 26.8 µM (inactive) | 15 µM (inactive) | 1.61 µM (inactive) | 1.2 µM (inactive) | 2.05 µM (inactive) | 5 µM (inactive) | 2.04 µM (inactive) | 2.19 µM (inactive) | 11.2 µM (inactive) |
